Measured values taken from PubChem BioAssay AID670 (University of Pittsburgh Molecular Library Screening Center, 2007).

Biological target: M-phase inducer phosphatase 2 (Homo sapiens) (UniProt P30305)
Test: Cdc25B inhibition under reducing thiol conditions, late-stage follow-up, Cdc25B inhibitor project, biochemical, beta-mercaptoethanol present, catalytic domain, IC50 (AID 670)
Conditions: recombinant Cdc25B phosphatase activity, with beta-mercaptoethanol

M-phase inducer phosphatase 2 (Homo sapiens), sequence (P30305 whole entry, looked up, the tested form may be a part): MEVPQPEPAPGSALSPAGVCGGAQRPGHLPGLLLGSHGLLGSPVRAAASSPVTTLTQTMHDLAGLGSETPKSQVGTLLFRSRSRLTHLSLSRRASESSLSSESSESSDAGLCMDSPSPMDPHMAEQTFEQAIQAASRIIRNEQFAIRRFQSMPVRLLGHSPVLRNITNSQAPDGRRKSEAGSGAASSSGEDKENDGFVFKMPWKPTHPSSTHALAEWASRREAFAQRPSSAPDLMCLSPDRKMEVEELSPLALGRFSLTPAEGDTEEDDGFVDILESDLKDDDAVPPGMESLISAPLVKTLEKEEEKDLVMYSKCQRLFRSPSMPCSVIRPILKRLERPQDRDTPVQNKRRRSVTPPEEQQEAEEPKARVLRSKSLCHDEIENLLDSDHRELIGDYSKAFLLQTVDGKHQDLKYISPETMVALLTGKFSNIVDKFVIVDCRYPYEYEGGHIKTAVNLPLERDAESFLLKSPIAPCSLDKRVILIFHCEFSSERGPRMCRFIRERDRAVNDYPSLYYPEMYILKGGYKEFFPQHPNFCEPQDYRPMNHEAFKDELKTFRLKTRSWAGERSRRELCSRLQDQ

Row | IC50 | SMILES
1 | 3.8 µM | O=C(OC1CCCCC1)c1ccc2c(c1)C1C=CCC1C(C(=O)O)N2 (configuration not stated)
2 | 8.11 µM | COc1cccc2c1NC(C(=O)O)C1CC=CC21 (configuration not stated)
